From patent US20250228235A1, “METHODS TO IMPROVE ORRGAN VIABILITY” (Mallinckrodt Pharmaceuticals Ireland Limited, priority 2017, published 2025)

Assays:
[1] = tested on: cerebral mitochondrial function (cortical and hippocampal tissue); assay: High-resolution respirometry of cortical and hippocampal tissue to assess mitochondrial function after cardiac arrest; type: in vivo, swine; settings: iNO 20 ppm vs placebo
Source text: (§1) Neurologic injury following pediatric cardiac arrest (CA) remains common. Inhaled nitric oxide (iNO) may mitigate cerebral mitochondrial dysfunction, a critical convergence point for secondary brain injury, triggered by CA. It was hypothesized that following asphyxia and cardiac arrest, animals treated with 20 ppm iNO during CPR and four hours post-return of spontaneous circulation (ROSC) will have improved cerebral blood flow (CBF) and improved mitochondrial function as defined by increased respiratory control ratio (RCR) and decreased mitochondrial reactive oxygen species (mtROS) compared with placebo.
(§2) 4-week-old swine received 7 minutes of asphyxia, then ventricular fibrillation. Guideline CPR was performed with compression depth (CD)≥⅓ of the chest diameter and standard epinephrine continued for 10 mins or until ROSC, with protocolized post-ROSC care. In a blinded fashion, subjects were randomized (iNO 20 ppm initiated 1 minute into CPR period, n=10, or placebo, n=10). […] Baseline and continuous CBF measurements were taken using invasive clinical and non-invasive optical instrumentation. Cortical and hippocampal tissue were analyzed by high-resolution respirometry to assess mitochondrial function. T-tests and ANOVA were used where applicable. Longitudinal hemodynamic variables were compared using generalized estimating equations to control for within-subject correlation.

[2] = tested on: 4-week-old swine; assay: Blinded, randomized, controlled pediatric swine asphyxial model of cardiac arrest (survival, cerebral blood flow, hemodynamics); type: in vivo
Source text: as §1, §2

## [N]=O [iNO, nitric oxide]
[1]; cortex, p<0.001
  mtROS generation, cortex: significantly lower
[1]; cortex, p=0.04
  Cortex RCR (respiratory control ratio): significantly higher
[1]; hippocampus, p=0.007
  hippocampal RCR (respiratory control ratio): significantly higher
[1]; hippocampus, p=0.03
  mtROS generation, hippocampus: significantly lower
[2]; during CPR and post-ROSC, iNO 20 ppm vs placebo
  invasive or noninvasive CBF (cerebral blood flow): no significant differences
[2]; iNO 20 ppm initiated 1 minute into CPR, n=10, placebo 7/10, p=0.21
  survived: 10/10
